Source: patent US20190204402A1, “METHOD FOR POST-PROCESSING MRI IMAGES TO OBTAIN HEPATIC PERFUSION AND TRANSPORT PARAMETERS” (INSERM (INSTITUT NATIONAL DE LA SANTE DE LA RECHERCHE …, priority 2016, published 2019)
Values joined by “and” are separate entries in the source; they are usually repeats but may differ in a detail not shown here. Equal values may be shown once.

Test system: liver of patients with chronic liver diseases
Test: Dynamic gadoxetate-enhanced MR imaging with dual-input three-compartment pharmacokinetic model, patients with chronic liver diseases
Assay type: in vivo, human
Protocol: The feasibility of the method was evaluated in a prospective study with liver biopsy as a gold standard on patients with liver chronic liver diseases. The institutional ethics committee approved the protocol and informed consent was obtained from each subject. Twenty-one consecutive patients (4 women, 17 men; mean age, 51.0±10.2 years) who were suspected of having chronic liver disease on clinical and biological data underwent in the same period liver biopsy and MR imaging. Mean delay between MR imaging and liver biopsy was 2.5 days (range: 0-20 days). All subjects were fasting during six hours before MR imaging. Exclusion criteria were the usual contra-indications for MR imaging.
Percutaneous liver biopsy was performed with a 1.4-mm-diameter needle (Hepafix; Braun, Melsungen, Germany). In 6 patients with ascites and/or trouble of blood crasis, liver biopsy was performed through a transjugular approach using a catheter needle with a diameter of 1.1 mm (Cook Bloomington, Ind., USA). The liver samples were fixed in buffered formalin and embedded in paraffin. Sections, 4 μm thick, were stained with hematoxylin-eosin and Masson trichrome and assessed by a pathologist blinded to the clinical data and to the results of MR imaging. The stage of fibrosis from F0 to F4 was evaluated semiquantitatively on Masson trichrome-stained slides according to the METAVIR staging system. For further analysis of fibrosis severity, a three-level staging of fibrosis was used (F0-F1: minimal fibrosis, F2-F3: intermediate fibrosis, and F4: cirrhosis). Moreover, patients with F≥2 were considered having significant fibrosis.
MR imaging was performed on a Siemens Skyra 3.0 T system (Siemens Medical Solutions, Erlangen, Germany). […] The signal was collected with the 32-channel phased array body and the spine coils.
Gadoxetate (Primovist, Bayer, Berlin, Germany) was injected intravenously using an automatic injector (Medrad Spectris Solaris, Warrendale, PA) with an injection rate of 1 mL·s^-1 and flushed with physiologic saline (same volume and injection rate). The gadoxetate dose was 0.025 mmol·kg^-1.
Dynamic liver imaging was started simultaneously with the intravenous injection of gadoxetate and was performed in free breathing.
To do this, pauses were added between dynamics as follow: for the 280 first dynamics: no pause, the effective temporal resolution was 2.1 s; for the next 150 dynamics: 5 s pause, the effective temporal resolution was 7.1 s, for the 60 last dynamics; 8 s pause, the effective temporal resolution was 10.1 s. Dynamic acquisition duration was close to 38 minutes.
To simultaneously quantify hepatic micro-perfusion and function transport parameters, a model was developed. In the liver, the quantity of gadoxetate Q between τ and τ+dτ can be expressed as the difference between incoming Qin and outgoing gadoxetate quantities Qout. This means that:
To express R(t) with kinetic indices kij, the liver is modeled with a model according to which the liver is a dual input three compartments. The three compartments are the extracellular compartment, the hepatocyte compartment and the intrahepatic bile ducts. The extracellular compartment comprises the intravascular compartment and the Disse space's.
From the motion corrected dynamic frames, arterial and portal input were recorded with freehand regions of interest (ROI) drawn in the abdominal aorta and the portal vein respectively. Tissue response was measured from a ROI placed in the right hepatic lobe anterior segment (segments V-VIII) and the right lobe posterior segment (segments VI-VII), two large ROIs covering an extended region without visible large vessels were drawn on three central slices. For inputs function and tissue response, signal intensity was converted into relative gadoxetate concentration as follows:
To convert blood concentration into plasma concentration, the input functions were normalized by one minus hematocrit. A hematocrit of 45% was assumed in this study. […]

[1] = intermediate fibrosis (F2-F3), n = 8
[2] = minimal fibrosis (F0-F1), n = 9

SMILES: CCOc1ccc(C[C@@H](CN(CCN(CC(=O)[O-])CC(=O)[O-])CC(=O)[O-])N(CC(=O)[O-])CC(=O)[O-])cc1.[Gd+3].[H+].[H+] [gadoxetate]
- Biliary efflux (cirrhosis (F4), n = 4): 0.31±0.57 mL · min^−1 · 100 g^−1
- E (hepatocyte uptake fraction) (cirrhosis (F4), n = 4): 3.4±2.5%
- MTT (extracellular mean transit time) (cirrhosis (F4), n = 4): 30.1 ± 12.5 s and 29.7 ± 9.7 s
- Sinusoidal backflux (cirrhosis (F4), n = 4): 0.0012±0.002 mL · min^−1 · 100 g^−1
- Ve (extracellular volume) (cirrhosis (F4), n = 4): 30.1 ± 12.5%
- Biliary efflux [1]: 1.5±0.5 mL · min^−1 · 100 g^−1
- E (hepatocyte uptake fraction) [1]: 8.7±3.1%
- MTT (extracellular mean transit time) [1]: 14.1 ± 3.9 s
- Sinusoidal backflux [1]: 0.021 ± 0.013 mL · min^−1 · 100 g^−1
- Ve (extracellular volume) [1]: 21.8 ± 6.5%
- Biliary efflux [2]: 3.2±1.0 mL · min^−1 · 100 g^−1
- E (hepatocyte uptake fraction) [2]: 12.0±3.8%
- MTT (extracellular mean transit time) [2]: 15.0 ± 5.0 s
- Sinusoidal backflux [2]: 0.035±0.012 mL · min^−1 · 100 g^−1
- Ve (extracellular volume) [2]: 20.8 ± 6.2%
- k3 (biliary efflux), parametric map (single F0 patient, FIG. 13): 3.53 mL·min^-1·100 g^-1
- k3 (biliary efflux), parametric map (single F1 patient, FIG. 14): 3.67 mL·min^-1·100 g^-1
- k3 (biliary efflux), parametric map (single F2 patient, FIG. 15): 2.23 mL·min^-1·100 g^-1
- k3 (biliary efflux), parametric map (single F3 patient, FIG. 16): 1.64 mL·min^-1·100 g^-1
